From article PMC10065276, “Enhanced therapeutic window for antimicrobial Pept-ins by investigating their structure-activity relationship” (PLOS ONE, 2023)
≈ marks a conversion by molar mass, not a printed value. Residues, ends and D or L forms follow the SMILES beside them.

Test system: E. coli BL21
Settings: BL21, 17 h
Protocol: The peptide MIC was determined via the broth microdilution assay according to the EUCAST guideline, using 96-well polystyrene flat-bottom microtiter plates (BD Biosciences). Briefly, a single colony was inoculated in 5 mL Mueller-Hinton (MH) medium and incubated, while shaking at 37°C, to the end-exponential growth phase. The bacterial culture was subsequently diluted to 0.005 McFarland (McF) (~1.5x10^6 CFU/mL) with fresh MH medium. Two-fold serial peptide-dilutions were prepared in 50 μL MH medium resulting in a concentration range of 0.75 to 100 μg/mL (at least three wells for each concentration). Afterwards, 50 μL of the freshly diluted bacterial suspension (0.005 McF) was mixed with different peptide concentrations in the 96-well plate, performed in triplicates. The plate was ultimately incubated at 37°C overnight without shaking for 17 hours. The MIC was determined as the lowest peptide concentration without visible bacterial growth.

SMILES	BL21 MIC [µg/mL]	MIC against E. coli BL21 [µg/mL]
CC(C)C[C@H](NC(=O)CNC(=O)[C@H](CCCNC(=N)N)NC(=O)[C@@H]1CCCN1C(=O)[C@H](CCCNC(=N)N)NC(=O)[C@H](CCCNC(=N)N)NC(=O)[C@@H](NC(=O)[C@H](CC(C)C)NC(=O)[C@H](Cc1ccccc1)NC(=O)[C@H](CC(C)C)NC(=O)CNC(=O)[C@H](CC(C)C)NC(=O)CNC(=O)[C@@H](N)CCCNC(=N)N)C(C)C)C(=O)NCC(=O)N[C@@H](CC(C)C)C(=O)N[C@@H](Cc1ccccc1)C(=O)N[C@@H](CC(C)C)C(=O)N[C@H](C(=O)N[C@@H](CCCNC(=N)N)C(=O)N[C@@H](CCCNC(=N)N)C(=O)O)C(C)C [A5F (P2)] (H-RGLGLFLVRRPRGLGLFLVRR-OH)	12.50	–
CC(C)C[C@H](NC(=O)CNC(=O)[C@H](CC(C)C)NC(=O)CNC(=O)[C@H](CCCNC(=N)N)NC(=O)[C@@H]1CCCN1C(=O)[C@H](CCCNC(=N)N)NC(=O)[C@H](CCCNC(=N)N)NC(=O)[C@@H](NC(=O)[C@H](CC(C)C)NC(=O)CNC(=O)[C@H](CC(C)C)NC(=O)CNC(=O)[C@H](CC(C)C)NC(=O)CNC(=O)[C@@H](N)CCCNC(=N)N)C(C)C)C(=O)NCC(=O)N[C@@H](CC(C)C)C(=O)N[C@H](C(=O)N[C@@H](CCCNC(=N)N)C(=O)N[C@@H](CCCNC(=N)N)C(=O)O)C(C)C [A5G (P2)] (H-RGLGLGLVRRPRGLGLGLVRR-OH)	25.00	–
CC[C@H](C)[C@H](NC(=O)[C@H](CC(C)C)NC(=O)CNC(=O)[C@H](CC(C)C)NC(=O)CNC(=O)[C@H](CCCNC(=N)N)NC(=O)[C@@H]1CCCN1C(=O)[C@H](CCCNC(=N)N)NC(=O)[C@H](CCCNC(=N)N)NC(=O)[C@@H](NC(=O)[C@H](CC(C)C)NC(=O)[C@@H](NC(=O)[C@H](CC(C)C)NC(=O)CNC(=O)[C@H](CC(C)C)NC(=O)CNC(=O)[C@@H](N)CCCNC(=N)N)[C@@H](C)CC)C(C)C)C(=O)N[C@@H](CC(C)C)C(=O)N[C@H](C(=O)N[C@@H](CCCNC(=N)N)C(=O)N[C@@H](CCCNC(=N)N)C(=O)O)C(C)C [A5I (P2)] (H-RGLGLILVRRPRGLGLILVRR-OH)	6.25	–
CC(C)C[C@H](NC(=O)CNC(=O)[C@H](CCCNC(=N)N)NC(=O)[C@@H]1CCCN1C(=O)[C@H](CCCNC(=N)N)NC(=O)[C@H](CCCNC(=N)N)NC(=O)[C@@H](NC(=O)[C@H](CC(C)C)NC(=O)[C@H](CC(C)C)NC(=O)[C@H](CC(C)C)NC(=O)CNC(=O)[C@H](CC(C)C)NC(=O)CNC(=O)[C@@H](N)CCCNC(=N)N)C(C)C)C(=O)NCC(=O)N[C@@H](CC(C)C)C(=O)N[C@@H](CC(C)C)C(=O)N[C@@H](CC(C)C)C(=O)N[C@H](C(=O)N[C@@H](CCCNC(=N)N)C(=O)N[C@@H](CCCNC(=N)N)C(=O)O)C(C)C [A5L (P2)] (H-RGLGLLLVRRPRGLGLLLVRR-OH)	12.50	–
CSCC[C@H](NC(=O)[C@H](CC(C)C)NC(=O)CNC(=O)[C@H](CC(C)C)NC(=O)CNC(=O)[C@H](CCCNC(=N)N)NC(=O)[C@@H]1CCCN1C(=O)[C@H](CCCNC(=N)N)NC(=O)[C@H](CCCNC(=N)N)NC(=O)[C@@H](NC(=O)[C@H](CC(C)C)NC(=O)[C@H](CCSC)NC(=O)[C@H](CC(C)C)NC(=O)CNC(=O)[C@H](CC(C)C)NC(=O)CNC(=O)[C@@H](N)CCCNC(=N)N)C(C)C)C(=O)N[C@@H](CC(C)C)C(=O)N[C@H](C(=O)N[C@@H](CCCNC(=N)N)C(=O)N[C@@H](CCCNC(=N)N)C(=O)O)C(C)C [A5M (P2)] (H-RGLGLMLVRRPRGLGLMLVRR-OH)	6.25	–
CC(C)C[C@H](NC(=O)CNC(=O)[C@H](CCCNC(=N)N)NC(=O)[C@@H]1CCCN1C(=O)[C@H](CCCNC(=N)N)NC(=O)[C@H](CCCNC(=N)N)NC(=O)[C@@H](NC(=O)[C@H](CC(C)C)NC(=O)[C@H](Cc1c[nH]c2ccccc12)NC(=O)[C@H](CC(C)C)NC(=O)CNC(=O)[C@H](CC(C)C)NC(=O)CNC(=O)[C@@H](N)CCCNC(=N)N)C(C)C)C(=O)NCC(=O)N[C@@H](CC(C)C)C(=O)N[C@@H](Cc1c[nH]c2ccccc12)C(=O)N[C@@H](CC(C)C)C(=O)N[C@H](C(=O)N[C@@H](CCCNC(=N)N)C(=O)N[C@@H](CCCNC(=N)N)C(=O)O)C(C)C [A5W (P2)] (H-RGLGLWLVRRPRGLGLWLVRR-OH)	12.50	–
CC(C)C[C@H](NC(=O)CNC(=O)[C@H](CCCNC(=N)N)NC(=O)[C@@H]1CCCN1C(=O)[C@H](CCCNC(=N)N)NC(=O)[C@H](CCCNC(=N)N)NC(=O)[C@@H](NC(=O)[C@H](CC(C)C)NC(=O)[C@H](Cc1ccc(O)cc1)NC(=O)[C@H](CC(C)C)NC(=O)CNC(=O)[C@H](CC(C)C)NC(=O)CNC(=O)[C@@H](N)CCCNC(=N)N)C(C)C)C(=O)NCC(=O)N[C@@H](CC(C)C)C(=O)N[C@@H](Cc1ccc(O)cc1)C(=O)N[C@@H](CC(C)C)C(=O)N[C@H](C(=O)N[C@@H](CCCNC(=N)N)C(=O)N[C@@H](CCCNC(=N)N)C(=O)O)C(C)C [A5Y (P2)] (H-RGLGLYLVRRPRGLGLYLVRR-OH)	6.25	–
CC(C)C[C@H](NC(=O)CNC(=O)[C@H](CCCNC(=N)N)NC(=O)[C@@H]1CCCN1C(=O)[C@H](CCCNC(=N)N)NC(=O)[C@H](CCCNC(=N)N)NC(=O)[C@@H](NC(=O)CNC(=O)[C@H](C)NC(=O)[C@H](CC(C)C)NC(=O)CNC(=O)[C@H](CC(C)C)NC(=O)CNC(=O)[C@@H](N)CCCNC(=N)N)C(C)C)C(=O)NCC(=O)N[C@@H](CC(C)C)C(=O)N[C@@H](C)C(=O)NCC(=O)N[C@H](C(=O)N[C@@H](CCCNC(=N)N)C(=O)N[C@@H](CCCNC(=N)N)C(=O)O)C(C)C [L6G (P2)] (H-RGLGLAGVRRPRGLGLAGVRR-OH)	100.00	–
CC(C)C[C@H](NC(=O)CNC(=O)[C@H](CCCNC(=N)N)NC(=O)[C@@H]1CCCN1C(=O)[C@H](CCCNC(=N)N)NC(=O)[C@H](CCCNC(=N)N)NC(=O)[C@H](Cc1c[nH]cn1)NC(=O)[C@H](Cc1c[nH]cn1)NC(=O)[C@H](C)NC(=O)[C@H](CC(C)C)NC(=O)CNC(=O)[C@H](CC(C)C)NC(=O)CNC(=O)[C@@H](N)CCCNC(=N)N)C(=O)NCC(=O)N[C@@H](CC(C)C)C(=O)N[C@@H](C)C(=O)N[C@@H](Cc1c[nH]cn1)C(=O)N[C@@H](Cc1c[nH]cn1)C(=O)N[C@@H](CCCNC(=N)N)C(=O)N[C@@H](CCCNC(=N)N)C(=O)O [P2_zero_tango_3] (H-RGLGLAHHRRPRGLGLAHHRR-OH)	>100.00	–
CC(C)C[C@H](NC(=O)CNC(=O)[C@H](CCCNC(=N)N)NC(=O)[C@@H]1CCCN1C(=O)[C@H](CCCNC(=N)N)NC(=O)[C@H](CCCNC(=N)N)NC(=O)[C@@H]1CCCN1C(=O)[C@H](CC(C)C)NC(=O)[C@H](C)NC(=O)[C@H](CC(C)C)NC(=O)CNC(=O)[C@H](CC(C)C)NC(=O)CNC(=O)[C@@H](N)CCCNC(=N)N)C(=O)NCC(=O)N[C@@H](CC(C)C)C(=O)N[C@@H](C)C(=O)N[C@@H](CC(C)C)C(=O)N1CCC[C@H]1C(=O)N[C@@H](CCCNC(=N)N)C(=O)N[C@@H](CCCNC(=N)N)C(=O)O [P2_zero_tango_4] (H-RGLGLALPRRPRGLGLALPRR-OH)	>100.00	–
CC(C)C[C@H](NC(=O)CNC(=O)[C@H](CCCNC(=N)N)NC(=O)[C@@H]1CCCN1C(=O)[C@H](CCCNC(=N)N)NC(=O)[C@H](CCCNC(=N)N)NC(=O)[C@@H](NC(=O)[C@H](CC(C)C)NC(=O)[C@H](CC(=O)O)NC(=O)[C@H](CC(C)C)NC(=O)CNC(=O)[C@H](CC(C)C)NC(=O)CNC(=O)[C@@H](N)CCCNC(=N)N)C(C)C)C(=O)NCC(=O)N[C@@H](CC(C)C)C(=O)N[C@@H](CC(=O)O)C(=O)N[C@@H](CC(C)C)C(=O)N[C@H](C(=O)N[C@@H](CCCNC(=N)N)C(=O)N[C@@H](CCCNC(=N)N)C(=O)O)C(C)C [P2_zero_tango_5] (H-RGLGLDLVRRPRGLGLDLVRR-OH)	>100.00	–
CC(C)C[C@H](NC(=O)CNC(=O)[C@H](CCCNC(=N)N)NC(=O)[C@H](C)NC(=O)[C@H](C)NC(=O)[C@H](CCCNC(=N)N)NC(=O)[C@@H](NC(=O)[C@H](CC(C)C)NC(=O)[C@H](C)NC(=O)[C@H](CC(C)C)NC(=O)CNC(=O)[C@H](CC(C)C)NC(=O)CNC(=O)[C@@H](N)CCCNC(=N)N)C(C)C)C(=O)NCC(=O)N[C@@H](CC(C)C)C(=O)N[C@@H](C)C(=O)N[C@@H](CC(C)C)C(=O)N[C@H](C(=O)N[C@@H](C)C(=O)N[C@@H](CCCNC(=N)N)C(=O)O)C(C)C [Peptide P2_4R_A] (H-RGLGLALVRAARGLGLALVAR-OH)	12.50	–
CC(C)C[C@H](NC(=O)CNC(=O)[C@H](CCCNC(=N)N)NC(=O)[C@H](Cc1ccccc1)NC(=O)[C@H](C)NC(=O)[C@H](CCCNC(=N)N)NC(=O)[C@@H](NC(=O)[C@H](CC(C)C)NC(=O)[C@H](C)NC(=O)[C@H](CC(C)C)NC(=O)CNC(=O)[C@H](CC(C)C)NC(=O)CNC(=O)[C@@H](N)CCCNC(=N)N)C(C)C)C(=O)NCC(=O)N[C@@H](CC(C)C)C(=O)N[C@@H](C)C(=O)N[C@@H](CC(C)C)C(=O)N[C@H](C(=O)N[C@@H](C)C(=O)N[C@@H](CCCNC(=N)N)C(=O)O)C(C)C [Peptide P2_4R_F] (H-RGLGLALVRAFRGLGLALVAR-OH)	12.50	–
CC(C)C[C@H](NC(=O)CNC(=O)[C@H](CCCNC(=N)N)NC(=O)[C@@H](NC(=O)CNC(=O)[C@H](C)NC(=O)[C@H](CCCNC(=N)N)NC(=O)[C@@H](NC(=O)[C@H](CC(C)C)NC(=O)[C@H](C)NC(=O)[C@H](CC(C)C)NC(=O)CNC(=O)[C@H](CC(C)C)NC(=O)CNC(=O)[C@@H](N)CCCNC(=N)N)C(C)C)C(C)C)C(=O)NCC(=O)N[C@@H](CC(C)C)C(=O)N[C@@H](C)C(=O)N[C@@H](CC(C)C)C(=O)N[C@H](C(=O)N[C@@H](C)C(=O)N[C@@H](CCCNC(=N)N)C(=O)O)C(C)C [Peptide P2_4R_GV] (H-RGLGLALVRAGVRGLGLALVAR-OH)	6.25	6.3 (≈ 2.88 µM)
